Reference: patent US20240002425A1, “NOVEL AMINOALKYL GLUCOSAMINIDE 4-PHOSPHATE DERIVATIVE” (DAIICHI SANKYO COMPANY, LIMITED, priority 2020, published 2024)

Molecular target: human TLR4 (Homo sapiens, UniProt O00206+Q9Y6Y9)
Test: Human TLR4 activating effect (HEK-Blue Human TLR4 Cells, SEAP reporter)
Format: cell-based
Conditions: 24 hours, SEAP Protein concentration, read-out: EC50 (ng/ml) (converted)
Method: The human TLR4 activating effect was studied using the compounds described in Examples 1 to 17 and monophosphoryl lipid A as Comparative Example A.
Triethanolamine was dissolved at 0.5% (v/v) in injectable distilled water to prepare an aqueous triethanolamine solution. 1 mg of each test drug was dissolved in 0.98 mL of the aqueous triethanolamine solution, and pH of the solution was then adjusted to 7.2 to 7.4 by the addition of 20 μL of 1 M HCl to prepare a 1 mg/mL solution. A dilution series of the test drug was prepared using a medium [DMEM (Nacalai Tesque, Inc.), 10% FBS (Sigma-Aldrich Co. LLC), 50 U/mL penicillin-50 μg/mL streptomycin (Thermo Fisher Scientific Inc.), 1×HEK-Blue Selection (InvivoGen), and 100 μg/mL Normocin (InvivoGen)]. 2×10^5 cells/mL HEK-Blue™ Human TLR4 Cells (InvivoGen) were inoculated to each well of a 96-well microplate for tissue culture (Iwaki), then treated with the test drug, and cultured at 37° C. for 24 hours under 5% CO2. The cells thus cultured were centrifuged at 400×g at 4° C. for 3 minutes. Recombinant SEAP Protein (InvivoGen) was used for a calibration curve. After addition of 180 μL of QUANTI-Blue (InvivoGen) to each well of 96 Well TC-Treated Microplates (Corning, Inc.), 20 μL each of the cell culture supernatant and a standard diluting solution was added to each well, and the plate was left standing at 37° C. for 4 hours. After reaction, absorbance (wavelength: 655 nm) was measured using a microplate reader (PerkinElmer, Inc., EnSpire), and a SEAP Protein concentration was calculated from the calibration curve and used as an index for TLR4 agonist activity. A drug concentration that induced reaction corresponding to 50% of the maximum reaction was calculated as EC50 (ng/mL) from a linear expression using two drug concentrations between which the drug concentration that induced reaction corresponding to 50% of the maximum reaction in each experiment was positioned, and measured values thereof.

Sequence of human TLR4 (O00206 24-839): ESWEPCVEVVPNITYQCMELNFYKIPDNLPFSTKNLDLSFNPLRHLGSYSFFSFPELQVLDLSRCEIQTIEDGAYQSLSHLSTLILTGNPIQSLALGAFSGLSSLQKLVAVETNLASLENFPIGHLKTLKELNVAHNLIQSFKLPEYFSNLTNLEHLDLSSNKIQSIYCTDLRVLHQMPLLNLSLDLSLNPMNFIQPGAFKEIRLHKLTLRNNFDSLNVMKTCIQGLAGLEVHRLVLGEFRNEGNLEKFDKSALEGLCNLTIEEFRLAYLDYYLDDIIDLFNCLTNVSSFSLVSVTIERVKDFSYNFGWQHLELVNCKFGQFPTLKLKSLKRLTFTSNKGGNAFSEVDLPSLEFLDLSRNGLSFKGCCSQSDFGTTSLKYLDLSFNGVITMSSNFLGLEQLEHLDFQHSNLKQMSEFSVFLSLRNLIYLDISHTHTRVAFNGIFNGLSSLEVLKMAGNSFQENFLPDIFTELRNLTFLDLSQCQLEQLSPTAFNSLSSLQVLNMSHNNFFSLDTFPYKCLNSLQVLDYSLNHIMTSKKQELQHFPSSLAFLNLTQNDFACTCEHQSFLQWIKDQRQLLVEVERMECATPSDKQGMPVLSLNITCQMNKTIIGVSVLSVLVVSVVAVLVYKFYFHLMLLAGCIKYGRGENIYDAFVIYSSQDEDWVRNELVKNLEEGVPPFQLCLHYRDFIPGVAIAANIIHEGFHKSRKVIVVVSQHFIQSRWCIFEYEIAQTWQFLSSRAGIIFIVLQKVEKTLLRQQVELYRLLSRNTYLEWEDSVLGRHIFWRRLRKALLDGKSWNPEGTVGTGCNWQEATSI
Sequence of human TLR4 (Q9Y6Y9 17-160 limits assumed): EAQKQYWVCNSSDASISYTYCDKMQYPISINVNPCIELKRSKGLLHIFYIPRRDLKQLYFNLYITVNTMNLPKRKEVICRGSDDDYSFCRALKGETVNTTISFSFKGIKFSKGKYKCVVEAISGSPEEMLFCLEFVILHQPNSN

SMILES | EC50
CCCCCCCCCCC[C@H](CC(=O)NC1C(CC[C@H](NC(=O)C[C@@H](CCCCCCCCCCC)OC(=O)CCCCCCCCC)C(=O)O)OC(CF)C(OP(=O)(O)O)C1OC(=O)C[C@@H](CCCCCCCCCCC)OC(=O)CCCCCCCCC)OC(=O)CCCCCCCCC (stereo partly drawn) [Example 16(16b), Ammonium 5,9-anhydro-7-O-[(3R)-3-(decanoyloxy)tetradecanoyl]-2,6-bis{[(3R)-3-(decanoyloxy)tetradecanoyl]amino}-2,3,4,6,10-pentadeoxy-10-fluoro-8-O-phosphono-D-erythro-L-galacto-decanoate] | 1.01 nM
CCCCCCCCCCC[C@H](CC(=O)N[C@H]1[C@H](OC[C@H](NC(=O)C[C@@H](CCCCCCCCCCC)OC(=O)CCCCCCCCC)C(=O)O)O[C@H](CO[C@]2(C(=O)O)C[C@@H](O)[C@@H](O)[C@@H]([C@H](O)CO)O2)[C@@H](OP(=O)(O)O)[C@@H]1OC(=O)C[C@@H](CCCCCCCCCCC)OC(=O)CCCCCCCCC)OC(=O)CCCCCCCCC [Example 4(4d), Ammonium (2S)-2-{[(3R)-3-(decanoyloxy)tetradecanoyl]amino}-3-({3-O-[(3R)-3-(decanoyloxy)tetradecanoyl]-2-{[(3R)-3-(decanoyloxy)tetradecanoyl]amino}-2-deoxy-6-O-(3-deoxy-α-D-manno-oct-2-ulopyranonosyl)-4-O-phosphono-β-D-glucopyranosyl}oxy)propanoate] | 0.328 nM
CCCCCCCCCCC[C@H](CC(=O)NC1C(CC[C@@H](CC(=O)O)NC(=O)C[C@@H](CCCCCCCCCCC)OC(=O)CCCCCCCCC)OC(COC2(C(=O)O)CC(O)C(O)C([C@H](O)CO)O2)C(OP(=O)(O)O)C1OC(=O)C[C@@H](CCCCCCCCCCC)OC(=O)CCCCCCCCC)OC(=O)CCCCCCCCC (stereo partly drawn) [Example 11(11d), Ammonium 6,10-anhydro-8-O-[(3R)-3-(decanoyloxy)tetradecanoyl]-3,7-bis{[(3R)-3-(decanoyloxy)tetradecanoyl]amino}-2,3,4,5,7-pentadeoxy-11-O-(3-deoxy-α-D-manno-oct-2-ulopyranonosyl)-9-O-phosphono-D-erythro-L-galacto-undecanoate] | 0.291 nM
CCCCCCCCCCC[C@H](CC(=O)NC1C(OC[C@H](NC(=O)C[C@@H](CCCCCCCCCCC)OC(=O)CCCCCCCCC)C(=O)O)OC(COC2(C(=O)O)CC(OC3(C(=O)O)CC(O)C(O)C([C@H](O)CO)O3)C(O)C([C@H](O)CO)O2)C(OP(=O)(O)O)C1OC(=O)C[C@@H](CCCCCCCCCCC)OC(=O)CCCCCCCCC)OC(=O)CCCCCCCCC (stereo partly drawn) [Example 5(5d), Ammonium (2S)-2-{[(3R)-3-(decanoyloxy)tetradecanoyl]amino}-3-{[3-deoxy-α-D-manno-oct-2-ulopyranonosyl-(2-+4)-3-deoxy-α-D-manno-oct-2-ulopyranonosyl-(2-+6)-3-O-[(3R)-3-(decanoyloxy)tetradecanoyl]-2-{[(3R)-3-(decanoyloxy)tetradecanoyl]amino}-2-deoxy-4-O-phosphono-β-D-glucopyranosyl]oxy}propanoate] | 0.187 nM
